Source: patent US10201530B2, “Treatment of BRCA1-defective cancer or resistant cancers” (City of Hope, priority 2014, dated 2019)

Legend:
[1] = system: OVCAR-3; assay: Cytotoxicity, OVCAR-3 cells; format: cell-based, human; details: Homo sapiens, read-out: IC50, mean ± SEM
Protocol: (§1) All cell lines were acquired from the American Type Culture Collection (Manassas, Va., USA). Cells were maintained in RPMI 1640 medium (Mediatech) with 10% fetal bovine serum, 2 mM glutamine, and 100 U of penicillin and 100 μg of streptomycin per ml of medium (Sigma) at 37° C. in 5% CO2. To isolate HCC1437+BRCA1 cells, parental HCC1937 cells were transfected with pcDNA3.1 plasmid expressing full-length BRCA1 cDNA. Stable transfectant clones were selected and used for drug sensitivity assays. For stable transfection, cells at 30-40% confluence were incubated overnight with […] of plasmid DNA, using FUGENE® 6 transfectin reagent (Roche Molecular Biochemical, Monza, Italy) according to the manufacturer's instructions. Cells were then selected in puromycin (1 μg/ml) (Invitrogen life Technologies, La Jolla, Calif., USA.) After 20 to 30 days, viable puromycin-resistant colonies from HCC1937 transfections were expanded and screened. The clones that stably expressed […] and retained growth potential were assayed for BRCA1 expression by Western blot analysis. By Western blot analysis, we evaluated the restoration of BRCA1 expression in the puromycin-resistant cDNA/transfectant cells.
The MTT cytotoxicity assay was performed by incubating with MTT and monitoring the MTT formazan formed by viable cells with a microplate reader at a wavelength of 560 nm; the survival, ratio was determined using the formula: (Atest−Ablank)/(Acontrol−Ablank)×100%. The cytotoxicity was determined in 96-well plates using the semiautomatic fluorescence-based Digital Imaging Microscopy System (DIMSCAN). DIMSCAN uses digital imaging microscopy to quantify viable cells, which selectively accumulate FDA (fluorescein diacetate; Alfa Aesar, Ward Hill, Mass.). DIMSCAN is capable of measuring cytotoxicity over a 4 log dynamic range by quantifying total fluorescence per well (which is proportional to the number of viable cells) after elimination of the background fluorescence by digital thresholding and eosin Y (Mallinckrodt Baker, Center Valley, Pa.) quenching. Cells were seeded into 96-well plates in 100 μL of complete medium at 2,000 to 5,000 cells per well depending on cell line growth rate. After overnight incubation, test compound was added to each well at various concentrations in 50 μL of culture medium. After incubation with the drugs for 96 hours at 37° C., FDA (final concentration: […]) and eosin Y [final concentration: 0.1% (w/v)] were added to each well and the cells were incubated for an additional 20 minutes at 37° C. Total fluorescence per well was then measured using DIMSCAN, and the results were expressed as the ratio of the fluorescence in treated wells to the fluorescence in untreated wells (survival fraction).

[2] = system: HCC1937; assay: Cytotoxicity, HCC1937 cells; format: cell-based, human; details: Homo sapiens; HCC1937, triple negative, BRCA1 mutant; COH29 72 h
Protocol: as §1
(§2) The MTT cytotoxicity assay was performed by incubating with MTT and monitoring the MTT formazan formed by viable cells with a microplate reader at a wavelength of 560 nm; the survival, ratio was determined using the formula: (Atest−Ablank)/(Acontrol−Ablank)×100%. The cytotoxicity was determined in 96-well plates using the semiautomatic fluorescence-based Digital Imaging Microscopy System (DIMSCAN). DIMSCAN uses digital imaging microscopy to quantify viable cells, which selectively accumulate FDA (fluorescein diacetate; Alfa Aesar, Ward Hill, Mass.). DIMSCAN is capable of measuring cytotoxicity over a 4 log dynamic range by quantifying total fluorescence per well (which is proportional to the number of viable cells) after elimination of the background fluorescence by digital thresholding and eosin Y (Mallinckrodt Baker, Center Valley, Pa.) quenching. […]

[3] = system: MCF-7; assay: Cytotoxicity, MCF-7 cells; format: cell-based, human; details: Homo sapiens, MCF7; MCF-7, ER+ PR(+)
Protocol: as §1, §2

[4] = system: HCC1937 tumors; assay: Orthotopic tumor explant model, HCC1937; format: in vivo; details: HCC1937 tumors in mammary fat pads of NSG mice, daily oral 400 mg/kg, 28 days
Protocol: Experiments in mice were conducted under a protocol approved by the IACUC of City of Hope. Because HCC1937 and HCC1937+BRCA1 cells from slow-growing tumors, they were implanted using MATRIGEL™ (Becton-Dickinson Biosciences). To establish tumors 4×10^6 cells in 200 μL serum-free medium containing 50% MATRIGEL™ were injected into the mammary fat pads around the inguinal area of a pair of 8 week old female NSG mice. Once the initial tenors reached 13 mm in diameter, they were dissected out minced into 3 mm pieces and implanted into the inguinal area of the mammary fat pads of the experimental mice Tumors were measured over a 28-day period, and for each time point, the student t-test was used to determine the statistical significance between daily gavage with 400 mg/kg COH29 in 30% solutol and corresponding vehicle control. The p value less than 0.05 (2 sides) was considered to indicate statistical significance

[5] = biological target: T1, PARP1 (Homo sapiens, UniProt P09874); assay: PARP1 activity in lysates of treated cells (chemiluminescent assay kit); format: cell-based
T1 construct: endogenous in cells; host or cells: HCC1937, HCC1937+BRCA1, UWB1.289, UWB1.289+BRCA1 (human breast / ovarian cancer lines)
Protocol: The PARP1 activity was determined using the PARP1 Chemiluminscent Assay Kit (BPS Bioscience, San Diego) according to the manufacturer's protocol. Briefly, the ribosylation reaction was carried out with activated DNA in PARP assay buffer using test inhibitor, positive control, substrate control and blank reactions, for 1 hour at 25° C. Detection was by streptavidin-HRP with chemiluminescent substrate A and B read in a luminometer.

[6] = system: PARP1 protein; assay: PARP1 protein level by Western blot; format: cell-based, human
Protocol: For subcellular fractionation, cells were trypsinized and washed with cold PBS solution twice. […] Following centrifugation at 1,000 g for 5 min, the supernatant was collected (i.e., cytoplasmic fraction) and pellets were washed with the same buffer twice. The washed samples were extracted for 40 min on ice with fractionation buffer containing 0.5% NP-40 for nuclear fraction. All the samples were sonicated and clarified by centrifugation at 16,000 g for 15 min. Protein concentrations of all fractions were determined with Bio-Rad Protein Assay (Bio-Rad Laboratories, Hercules, Calif.). Immunoblotting was performed as described previously (21,22). Briefly, equal amounts of boiled protein samples were subjected to SDS-polyacrylamide gel electrophoresis (PAGE) and transferred onto nitrocellulose membranes (Bio-Rad Laboratories). Membranes were blocked for 1 hour in 3% BSA in Tris buffered saline containing 0.05% Tween 20 (TBST) and incubated for 1 hour with primary antibody (1:500 or 1:1000) diluted in TBST containing 1% BSA. After two washes with TBST, membranes were incubated for 1 hour with horseradish peroxidase-conjugated secondary Abs (1:3000 dilution) at room temperature. The immunoblots were visualized on film with the West-Q chemi-luminescence kit (GenDEPOT, Barker, Tex.).

[7] = more potent than HU, ref (6); cited from earlier work

T1 sequence (P09874 whole entry): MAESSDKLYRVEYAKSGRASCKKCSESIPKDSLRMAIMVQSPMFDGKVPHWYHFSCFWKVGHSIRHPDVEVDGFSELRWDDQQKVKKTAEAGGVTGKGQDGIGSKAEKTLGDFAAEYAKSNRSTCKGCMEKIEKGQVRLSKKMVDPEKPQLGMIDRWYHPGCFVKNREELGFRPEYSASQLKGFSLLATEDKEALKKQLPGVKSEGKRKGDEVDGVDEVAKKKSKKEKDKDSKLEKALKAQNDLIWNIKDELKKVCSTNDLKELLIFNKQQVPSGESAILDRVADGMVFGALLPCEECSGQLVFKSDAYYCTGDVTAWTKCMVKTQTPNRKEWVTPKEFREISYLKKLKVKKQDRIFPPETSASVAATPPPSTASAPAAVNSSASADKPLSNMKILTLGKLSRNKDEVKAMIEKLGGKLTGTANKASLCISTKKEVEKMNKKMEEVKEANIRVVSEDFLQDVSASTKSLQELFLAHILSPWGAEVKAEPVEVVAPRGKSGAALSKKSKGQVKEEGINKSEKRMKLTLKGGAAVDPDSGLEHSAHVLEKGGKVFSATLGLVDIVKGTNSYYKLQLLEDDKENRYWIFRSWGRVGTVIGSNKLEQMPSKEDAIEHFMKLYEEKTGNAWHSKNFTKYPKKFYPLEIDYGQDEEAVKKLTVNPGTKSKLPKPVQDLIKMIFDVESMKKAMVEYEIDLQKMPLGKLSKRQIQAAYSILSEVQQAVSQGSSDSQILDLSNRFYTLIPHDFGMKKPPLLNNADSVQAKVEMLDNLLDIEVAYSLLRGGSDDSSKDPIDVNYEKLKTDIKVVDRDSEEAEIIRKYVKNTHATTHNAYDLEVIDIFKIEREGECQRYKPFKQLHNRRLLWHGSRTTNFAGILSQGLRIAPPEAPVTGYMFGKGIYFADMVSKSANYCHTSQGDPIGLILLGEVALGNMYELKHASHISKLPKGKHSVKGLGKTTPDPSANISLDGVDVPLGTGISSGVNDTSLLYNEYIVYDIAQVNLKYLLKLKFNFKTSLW

Compound `O=C(Nc1nc(-c2ccc(O)c(O)c2)c(-c2ccccc2)s1)c1ccc(O)c(O)c1` [COH29] has an IC50 [1] of 20.5 ± 0.81 µM, an IC50 [2] of 7.25 ± 0.64 µM and an IC50 [3] of 17.6 ± 1.54 µM. For the same compound, the “growth of tumors compared to vehicle” value [4] was “significantly (p=0.0007) suppressed”, the “PARP1 activity, treated cells” value ([5]; HCC1937+BRCA1, 24 h, untreated 2336878 cps) was 2041097 cps and the “PARP1 activity, treated cells” value ([5]; HCC1937, 24 h, untreated 726177 cps) was 427851 cps. For the same compound, the “PARP1 activity, treated cells” value ([5]; UWB1.289+BRCA1, 8 h, untreated printed 145769 cps) was 2129944 cps, the “PARP1 activity, treated cells” value ([5]; UWB1.289, 8 h, untreated printed 113559 cps) was 774611 cps and the “effect on PARP1 protein level” value ([6]; HCC1937 BRCA1-defective cells, 24 h) was “attenuated PARP1 protein”. For the same compound, the “effect on PARP1 protein level” value ([6]; HCC1937 cells irrespective of BRCA1 status, 4 h treatment) was “Little reduction” and the “potency relative to HU” value [7] was 20 fold.
